Target: T1, CAMK4 (CaMKIV) (Homo sapiens, UniProt Q16566)
T1 construct: purchased Thermo Fisher Scientific (Life Technologies) SelectScreen
Test: SelectScreen Z'LYTE
Type: biochemical
Procedure, shortened: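 Percent values come from Thermo SelectScreen profiling of NU5455, combining activity and binding assays. CSF1R was run in Z'LYTE format at Km app ATP, and CAMK1 in Adapta format with ATP listed at 10.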

T1 sequence (Q16566 whole entry): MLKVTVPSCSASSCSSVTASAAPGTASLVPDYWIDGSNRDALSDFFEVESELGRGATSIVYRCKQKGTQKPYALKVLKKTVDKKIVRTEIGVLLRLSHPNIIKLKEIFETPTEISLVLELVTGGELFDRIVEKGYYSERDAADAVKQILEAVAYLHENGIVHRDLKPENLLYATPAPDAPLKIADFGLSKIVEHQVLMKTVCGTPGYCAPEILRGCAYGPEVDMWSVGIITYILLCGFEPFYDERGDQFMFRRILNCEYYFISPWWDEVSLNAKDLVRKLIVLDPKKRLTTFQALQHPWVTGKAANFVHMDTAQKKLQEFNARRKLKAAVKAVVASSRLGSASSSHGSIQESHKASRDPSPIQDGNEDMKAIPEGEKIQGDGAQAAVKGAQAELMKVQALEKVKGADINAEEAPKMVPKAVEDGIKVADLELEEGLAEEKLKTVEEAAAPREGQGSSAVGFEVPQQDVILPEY

Work on `CN(C(=O)CN1CCOCC1)c1ccc2sc3c(-c4cccc5c(=O)cc(N6CC7CCC(C6)O7)oc45)cccc3c2c1` [NU5455] yielded an inhibition at 1 µM of -10.4%.

Reference: paper PMC6934184, “Selective DNA-PKcs inhibition extends the therapeutic index of localized radiotherapy and chemotherapy” (The Journal of Clinical Investigation, 2019)
